Experiments:
[1] = test system: human embryonic kidney 293 cells; details: clonal HEK 293 cells challenged with caffeine; cited from earlier work
Jurkat cells = assay: Calcium response of trapped Fluo-3-loaded Jurkat cells to ionomycin on chip (cell trap arrays with concentration gradient generator); assay type: cell-based, human
Protocol: Jurkat E6-1 human acute T cell lymphoma cells (ATCC) were cultured in RPMI 1640 medium with L-glutamine (Sigma-Aldrich, St. Louis, Mo.) with 10 mM HEPES, 1 mM sodium pyruvate, 1×MEM nonessential amino acids, and 100 units mL^−1 penicillin streptomycin (Cellgro), supplemented with 10% certified heat inactivated fetal bovine serum (Sigma-Aldrich, St. Louis, Mo.), at 37° C. in a humidified 5% CO2 incubator. For nuclei visualisation, Jurkat cells were incubated with Hoechst 33258, at a final concentration of 1 μg mL^−1, at 37° C. for 20 minutes.
Cells were checked for viability using Live/Dead stain (Invitrogen) following the manufacturer's protocol. For high resolution microscopy, 10^6 cells were fixed in a 5% formalin solution (Sigma-Aldrich, St. Louis, Mo.) for 15 minutes at 37° C., washed three times with cold PBS, and resuspended in 100 μL of ice cold 90% methanol. Immunostaining was performed on fixed cells using […] for DNA staining, mouse α-calnexin (Abcam) for ER staining, and rabbit α-profilin-1 (Cell Signaling), as a cytoplasmic localized protein. Incubation with the primary antibody for one hour at room temperature was followed by three wash steps with a solution of 2% BSA in PBS and incubation for 40 minutes at room temperature with the following secondary antibodies: Alexa 488 α-mouse (Invitrogen) and goat α-rabbit TRITC (Southern Biotech). To monitor calcium signaling, Jurkat cells were incubated with 5 μM Fluo-3 (Invitrogen) for 20 minutes at 37° C., washed with cold PBS, and loaded into the cell traps. Trapped cells were stimulated with ionomycin (Sigma, St. Louis, Mo.) at various concentrations to release intracellular calcium.
Before each experiment, the microfluidic devices were primed using a solution of 2% BSA in PBS to remove any air bubbles and limit undesirable cell adhesion to the wall. A pressure difference of 3.5 kPa (5.5 kPa for devices with upstream serial-dilution gradient generator) created by gravity was used to drive the flow, resulting to an average flow rate of ˜2 μL h^−1. Cell loading was obtained by pipetting 2 μL of 5×10^6 cell mL^−1 of cell suspension on the chip positioned on the microscope stage. Further experiments (staining, stimulation) were performed by adding 5 μL of 4× chemicals in the inlet hole and flowing over the trapped cells for the desired time. All experiments were performed in a microcontrolled environment (temperature set at 37° C. in a humidified 5% CO2 environment).
A […] (SIMCA-P, Umetrics) was run on a known dataset of objects to determine the two most informative predictors of the number of cells contained in an object. The perimeter and the extent (ratio of pixels in the object to pixels in the total bounding box) were found as being the most informative. To quantify single cell trapping efficiency, the distribution of objects in the perimeter-extent space was fitted to a 2-component Gaussian mixture model for each chamber trap array. The maximum likelihood parameters from each of the two subpopulations were retrieved and represented respectively the percentage of single cell objects and multiple cell objects. Single cell response intensities were obtained by tracking the mean intensity of each object considered as a single cell in the overlaid mask and image over time.
The present trap arrays can also be easily integrated with upstream microfluidic components capable of multiplexing experiments, where cells can be exposed to different extracellular conditions on a single chip. […] After loading cells containing Fluo-3, more than 1,000 individual cells were monitored for an hour after the addition of different concentrations of the calcium ionophore ionomycin. Ionomycin increases intracellular calcium via mobilization of both extracellular and intracellular calcium stores in T cells. As expected, increased concentration of stimulus lead to increased average intracellular calcium concentration (FIG. 17). […]

SMILES	cells responding with an elevation in intracellular calcium [1]	% Responding Cells (Jurkat cells; ionomycin 0.08 μM, chamber 8, 250 tracked cells)	% Responding Cells (Jurkat cells; ionomycin 0.2 μM, chamber 7, 306 tracked cells)	% Responding Cells (Jurkat cells; ionomycin 0.5 μM, chamber 6, 273 tracked cells)	% Responding Cells (Jurkat cells; ionomycin 0.8 μM, chamber 5, 287 tracked cells)	% Responding Cells (Jurkat cells; ionomycin 1.4 μM, chamber 4, 322 tracked cells)	% Responding Cells (Jurkat cells; ionomycin 1.8 μM, chamber 3, 263 tracked cells)	% Responding Cells (Jurkat cells; ionomycin 2.2 μM, chamber 2, 328 tracked cells)	% Responding Cells (Jurkat cells; ionomycin 2.5 μM, chamber 1, 342 tracked cells)
Cn1c(=O)c2c(ncn2C)n(C)c1=O [caffeine]	40%								
C[C@H](CCC(=O)O)C[C@H](C)C[C@H](C)C(=O)/C=C(\O)[C@H](C)C[C@H](C)C/C=C/[C@@H](C)[C@@H](O)[C@@H](C)[C@@H](O)C[C@@H]1CC[C@@](C)([C@H]2CC[C@@](C)([C@@H](C)O)O2)O1 [ionomycin]		4%	17%	19.1%	25.4%	31.1%	31.9%	33.2%	44%

— patent US9957472B2, “Deterministic high-density single-cell trap array” (Georgia Tech Research Corporation, priority 2011, dated 2018)
